Source: ChEMBL document CHEMBL1140736, “High-throughput log P determination by ultraperformance liquid chromatography: a convenient tool for medicinal chemists” (J Med Chem, 2008)

Tests used:
[1] = Partition coefficient, log P by UPLC method; assay type: physicochemical; conditions: octanol/water
[2] = Partition coefficient, log P of the compound; assay type: physicochemical; conditions: octanol/water

Compound | logP [1] | logP [2]
C=CCc1ccccc1OCC(O)CNC(C)C (stereo not drawn) [ALPRENOLOL] | 3.4 | –
CC(C)NCC(O)COc1ccc(COCCOC(C)C)cc1 (stereo not drawn) [BISOPROLOL] | 2.6 | 2.15
CCCCN1CCCCC1C(=O)Nc1c(C)cccc1C (stereo not drawn) [BUPIVACAINE] | 3.8 | 3.72
CCCCN(CCCC)CCCOC(=O)c1ccc(N)cc1 [BUTACAINE] | 4.7 | 4.26
CC(C)NCC(O)COc1cccc2[nH]c3ccccc3c12 (stereo not drawn) [CARAZOLOL] | 3.4 | 3.73
CCCCOc1cc(C(=O)NCCN(CC)CC)c2ccccc2n1 [DIBUCAINE] | – | 4.19
Cc1cccc(C)c1NC(=O)C1CCCCN1C (stereo not drawn) [MEPIVACAINE] | 2.2 | –
CC(=O)Oc1c(C)cc(OCC(O)CNC(C)C)c(C)c1C (stereo not drawn) [METIPRANOLOL] | 3 | 2.81
CC(C)NCC(O)COc1cccc2[nH]ccc12 (stereo not drawn) [PINDOLOL] | 1.9 | 1.83

Continued, values first:

logP [1] | logP [2] | Compound
2.2 | – | COCCc1ccc(OCC(O)CNC(C)C)cc1 (stereo not drawn) [METOPROLOL]
2.6 | 2.51 | C=CCOc1ccccc1OCC(O)CNC(C)C (stereo not drawn) [OXPRENOLOL]
2.3 | 2.12 | CCCNC(C)C(=O)Nc1ccccc1C (stereo not drawn) [PRILOCAINE]
2.1 | 2.03 | CCN(CC)CCOC(=O)c1ccc(N)cc1 [PROCAINE]
– | 3.39 | CCCCNc1ccc(C(=O)OCCN(C)C)cc1 [TETRACAINE]
